pEC50: −log10 of the molar value.
What follows are compounds tested against G-protein coupled receptor 6 (Homo sapiens, UniProt P46095) (assay: Modulator activity at GPR6 receptor (unknown origin) expressed in CHO-K1 cells assessed as inhibition of constitutive cAMP activity incubated for 45 mins by Eu-cAMP tracer based HTRF Ultra cAMP assay).
Type: functional, cell-based

G-protein coupled receptor 6, sequence (P46095 whole entry): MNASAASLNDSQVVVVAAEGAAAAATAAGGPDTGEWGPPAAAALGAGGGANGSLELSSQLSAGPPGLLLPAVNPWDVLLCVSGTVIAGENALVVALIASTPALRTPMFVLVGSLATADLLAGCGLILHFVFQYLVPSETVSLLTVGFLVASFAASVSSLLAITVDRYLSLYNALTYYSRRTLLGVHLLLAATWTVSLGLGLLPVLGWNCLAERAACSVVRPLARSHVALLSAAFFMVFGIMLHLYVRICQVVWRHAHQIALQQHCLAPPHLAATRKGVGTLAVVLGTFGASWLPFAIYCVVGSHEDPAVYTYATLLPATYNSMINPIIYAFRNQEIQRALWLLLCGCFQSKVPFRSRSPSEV

Row | Structure (SMILES) | pEC50
1 | N#Cc1ccc(N2CCC(Oc3ccc(F)cc3F)CC2)c(NC(=O)c2cccn(Cc3ccccc3)c2=O)c1 | 5.70
2 | Cc1nc(C(=O)Nc2cc(C#N)ccc2N2CCC(Oc3ccc(F)cc3F)CC2)no1 | 5.70
3 | Cn1cccc(C(=O)Nc2cc(C#N)ccc2N2CCC(Oc3cc(F)cc(F)c3)CC2)c1=O | 5.70

From ChEMBL document CHEMBL4418317, “Piperidinyl- and piperazinyl-substituted heteroaromatic carboxamides as modulators of gpr6” (2018)
